Columns and labels:
MCF7 = assay: cells; conditions: Homo sapiens, MCF7, 24 h
Description: Cytotoxicity against human MCF7 cells assessed as cell survivability after 24 hrs by crystal violet staining based microscopic analysis

Carbonic anhydrase 9 = Carbonic anhydrase 9 (Homo sapiens, UniProt Q16790)
Description: Inhibition of human recombinant CA9 preincubated for 15 mins prior to testing by stopped flow CO2 hydrase assay

Structure (SMILES) | IC50 (MCF7) [µM] | Ki (Carbonic anhydrase 9) [µM]
CN(C)c1ccc(-c2nc(NNc3csc(Nc4ccc(S(N)(=O)=O)cc4)n3)[nH]c(=O)c2C#N)cc1 | 89.7 | 
NS(=O)(=O)c1ccc(Nc2nc(Nc3ccc(C(=O)O)cc3)cs2)cc1 | 22.1 | 0.0088
NS(=O)(=O)c1ccc(Nc2nc(NN3C(=O)/C(=C/c4ccc(Cl)cc4)N=C3c3ccccc3)cs2)cc1 | > 150 | 0.0292
NS(=O)(=O)c1ccc(Nc2csc(Nc3ccc(S(N)(=O)=O)cc3)n2)cc1 | 21.5 | 0.0073
N#Cc1c(-c2ccc(Cl)cc2)nc(Sc2csc(Nc3ccc(S(N)(=O)=O)cc3)n2)[nH]c1=O | 86.6 | 
NC(N)=NS(=O)(=O)c1ccc(N/N=C2\SC(Nc3ccc(S(N)(=O)=O)cc3)=NC2=O)cc1 | 11.9 | 0.0085
NS(=O)(=O)c1ccc(Nc2nc(Nc3ccc(F)cc3)cs2)cc1 | 12 | 0.0056
N#Cc1c(-c2ccccc2)nc(Sc2csc(Nc3ccc(S(N)(=O)=O)cc3)n2)[nH]c1=O | > 150 | 
NS(=O)(=O)c1ccc(Nc2nc(NN3C(=O)/C(=C/c4ccccc4)N=C3c3ccc(Cl)cc3)cs2)cc1 | > 150 | 
NS(=O)(=O)c1ccc(NC2=NC(=O)/C(=N/Nc3ccc(Cl)cc3)S2)cc1 | 10.7 | 
NS(=O)(=O)c1ccc(NC2=NC(=O)/C(=N/Nc3ccc(C(=O)O)cc3)S2)cc1 | 5.45 | 0.0064
CN(C)c1ccc(/C=C2\N=C(c3ccccc3)N(Nc3csc(Nc4ccc(S(N)(=O)=O)cc4)n3)C2=O)cc1 | 38.9 | 
NS(=O)(=O)c1ccc(Nc2nc(NN3C(=O)/C(=C/c4ccccc4)N=C3c3ccccc3)cs2)cc1 | 45.9 | 
NS(=O)(=O)c1ccc(N/N=C2\SC(Nc3ccc(S(N)(=O)=O)cc3)=NC2=O)cc1 | 2.79 | 0.0058
NS(=O)(=O)c1ccc(Nc2nc(NN3C(=O)/C(=C/c4ccc(Cl)cc4)N=C3c3ccc(Cl)cc3)cs2)cc1 | 136 | 
NS(=O)(=O)c1ccc(Nc2nc(N3CCCCC3)cs2)cc1 | 24.3 | 0.0067
N#Cc1c(-c2ccccc2)nc(NNc2csc(Nc3ccc(S(N)(=O)=O)cc3)n2)[nH]c1=O | > 150 | 0.0065
CN(C)c1ccc(-c2nc(Sc3csc(Nc4ccc(S(N)(=O)=O)cc4)n3)[nH]c(=O)c2C#N)cc1 | 85 | 
CN(C)c1ccc(/C=C2\N=C(c3ccc(Cl)cc3)N(Nc3csc(Nc4ccc(S(N)(=O)=O)cc4)n3)C2=O)cc1 | 44.5 | 
N#Cc1c(-c2ccc(Cl)cc2)nc(NNc2csc(Nc3ccc(S(N)(=O)=O)cc3)n2)[nH]c1=O | > 150 | 
O=c1[nH]cc(F)c(=O)[nH]1 [FLUOROURACIL] | 11.1 | 

Source: ChEMBL document CHEMBL3808361, “Synthesis of 4-(thiazol-2-ylamino)-benzenesulfonamides with carbonic anhydrase I, II and IX inhibitory activity and cytotoxic effects against breast cancer cell lines” (Bioorg Med Chem, 2016)
